{
  "source": "patent EP4786468A1",
  "about": "“CRYSTALLINE FORM OF HDAC6 INHIBITOR AND PREPARATION METHOD THEREFOR” (Suzhou Genhouse Bio Co., Ltd., priority 2023, dated 2025)",
  "key": {"HDAC6": {"target": "T1, HDAC6 (Homo sapiens, UniProt Q9UBN7)", "T1 construct": "purchased Abcam", "T1 sequence (Q9UBN7 1-1215)": "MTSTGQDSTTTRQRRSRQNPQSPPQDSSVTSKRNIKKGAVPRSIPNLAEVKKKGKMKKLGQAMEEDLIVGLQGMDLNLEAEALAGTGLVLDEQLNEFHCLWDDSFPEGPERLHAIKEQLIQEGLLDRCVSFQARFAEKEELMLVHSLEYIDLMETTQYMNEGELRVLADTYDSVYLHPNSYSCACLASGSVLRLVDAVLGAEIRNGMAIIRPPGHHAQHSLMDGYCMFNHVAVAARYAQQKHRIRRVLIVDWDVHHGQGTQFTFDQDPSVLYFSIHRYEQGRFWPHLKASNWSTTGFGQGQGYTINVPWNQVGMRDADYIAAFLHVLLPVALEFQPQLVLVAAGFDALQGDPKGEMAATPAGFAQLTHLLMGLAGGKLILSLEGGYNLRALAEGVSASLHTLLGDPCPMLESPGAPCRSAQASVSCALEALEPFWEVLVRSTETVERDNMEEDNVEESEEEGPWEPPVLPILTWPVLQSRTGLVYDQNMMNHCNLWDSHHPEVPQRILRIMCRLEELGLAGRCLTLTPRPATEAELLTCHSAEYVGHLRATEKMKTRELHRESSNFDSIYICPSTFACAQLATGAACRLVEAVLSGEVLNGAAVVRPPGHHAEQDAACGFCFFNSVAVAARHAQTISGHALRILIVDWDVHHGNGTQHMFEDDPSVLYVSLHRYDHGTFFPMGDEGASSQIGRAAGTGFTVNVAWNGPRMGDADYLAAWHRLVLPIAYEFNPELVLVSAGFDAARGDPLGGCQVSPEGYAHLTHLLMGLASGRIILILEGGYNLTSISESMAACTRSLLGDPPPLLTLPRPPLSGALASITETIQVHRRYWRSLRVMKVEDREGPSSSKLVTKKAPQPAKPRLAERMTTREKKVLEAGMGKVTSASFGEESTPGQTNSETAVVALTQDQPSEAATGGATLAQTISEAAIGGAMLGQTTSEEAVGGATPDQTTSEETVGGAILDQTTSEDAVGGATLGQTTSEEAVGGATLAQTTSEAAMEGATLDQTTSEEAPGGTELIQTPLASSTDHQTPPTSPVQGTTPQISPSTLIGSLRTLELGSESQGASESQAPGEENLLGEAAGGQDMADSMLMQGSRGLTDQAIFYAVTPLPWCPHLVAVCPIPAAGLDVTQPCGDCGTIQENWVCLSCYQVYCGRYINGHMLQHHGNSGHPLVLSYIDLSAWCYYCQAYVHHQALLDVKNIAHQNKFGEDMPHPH", "assay": "HDAC6 enzyme activity assay (fluorogenic substrate Ac-GAK(Ac)-AMC)", "format": "biochemical", "details": "HDAC6 (Abcam), 20 µM substrate, 37°C 30 min", "from_the_text": "The IC50 was obtained by fitting with GraphPad Prism 7.0 software."}, "[1]": {"assay": "Phase I metabolic stability in liver microsomes", "format": "in vitro ADME, beagle dogs", "details": "DLM", "description": "Evaluation of the Phase I metabolic stability of the test compound in liver microsomes from CD-1 mice (MLM), Sprague-Dawley rats (RLM), beagle dogs (DLM), cynomolgus monkeys (CLM), and humans (HLM).\nThe animal and human liver microsomes used in this test system were purchased from Xenotech, Corning, or other qualified suppliers and stored in a freezer below -60°C before use.\nThe test and control compounds were incubated with animal and human liver microsomes at 37±1°C for a certain period, with a maximum incubation time of 60 minutes. Samples were taken at specified time points, and the reaction was terminated with acetonitrile or other organic solvents containing an internal standard. After centrifugation, the resulting supernatant was analyzed using liquid chromatography-tandem mass spectrometry (LC-MS/MS).\n73.21 g of dipotassium hydrogen phosphate trihydrate and 10.78 g of potassium dihydrogen phosphate were dissolved in 4000 mL of ultrapure water. The pH of the solution was adjusted to 7.40±0.10 using 10% phosphoric acid or 1 M potassium hydroxide, with a final concentration of 100 mM. […]\nSample analysis was performed using liquid chromatography-tandem mass spectrometry (LC-MS/MS), without calibration curves and quality control samples. Semi-quantitative determination was performed using the ratio of the analyte peak area to the internal standard peak area. […]"}},
  "data": [
    {"smiles": "O=C(N[C@@H]1CCCC[C@H]1N1Cc2ccc(-c3nnc(C(F)F)o3)cc2S1(=O)=O)C(F)F", "note": "[I]", "values": [
      {"measurement": "IC50", "setting": "HDAC6", "result": 5.7, "unit": "nM"},
      {"measurement": "Remaining Rate (NCF=60 min)", "setting": "[1]; 60 min, buffer instead of NADPH regeneration system", "result": 90.9, "unit": "%"},
      {"measurement": "Remaining Rate (T=60 min)", "setting": "[1]; 60 min with NADPH regeneration system", "result": 85.8, "unit": "%"}
    ]}
  ]
}
